{"source": "ChEMBL document CHEMBL1157539", "about": "“Thousands of chemical starting points for antimalarial lead identification” (Nature, 2010)", "data": [{"system": "Plasmodium falciparum", "experiment": "GSK_TCMDC: Inhibition of Plasmodium falciparum 3D7 in whole erythrocytes, using parasite LDH activity as an index of growth.", "type": "functional, organism-based", "conditions": "Plasmodium falciparum, 3D7", "units": {"XC50": "nM"}, "values": [{"smiles": "O=[N+]([O-])c1ccc(Nc2nc(NCc3ccccc3)nc(N/N=C/c3ccccc3[N+](=O)[O-])n2)cc1", "XC50": 157}, {"smiles": "CCc1cc(Cc2cnc(N)nc2N)cc(CC)c1OC", "XC50": 1130}, {"smiles": "OC(CNCc1ccccc1OCc1ccccc1)c1cccc(C(F)(F)F)c1", "note": "(stereo not drawn)", "XC50": 364}, {"smiles": "COc1ccc(CCN(C)CCc2ccc(NC(=O)c3cccc4c(=O)c5ccccc5sc34)cc2)cc1", "XC50": 859}, {"smiles": "C[C@H](Cc1ccc(C[C@@H](C)NCC(O)c2cc(Cl)c(N)c(Cl)c2)cc1)NCC(O)c1cc(Cl)c(N)c(Cl)c1", "note": "(stereo partly drawn)", "XC50": 893}, {"smiles": "Cc1cccc2nc(-c3ccc(-c4ccc(CN5CCN(CCC#N)CC5)cc4)cc3)[nH]c12", "XC50": 864}, {"smiles": "CS(=O)(=O)NCCCNCc1ccc(-c2cccc(-c3nc4cc(C(F)(F)F)ccc4[nH]3)c2)cc1", "XC50": 854}, {"smiles": "COc1ccc(-c2cccc(NC(=O)c3cccc(C#N)c3)c2)cc1CN(C)CCN(C)C", "XC50": 314}, {"smiles": "COc1ccc2nccc([C@@H](O)CN3CCC(NC(=O)/C=C/c4ccc5cc(C)[nH]c5c4)CC3)c2c1", "XC50": 728}, {"smiles": "COc1ccc(C(C(=O)NC2CCN(C[C@H](O)c3ccnc4ccc(OC)cc34)CC2)N2CCN(c3ccc([N+](=O)[O-])cc3)CC2)cc1", "note": "(stereo partly drawn)", "XC50": 232}, {"smiles": "CC(C)CNCc1ccc(-c2cccc(CN(C(=O)CCC3CCCC3)C3CCN(Cc4ccccc4)CC3)c2)cc1", "XC50": 799}, {"smiles": "CCN1CCN(c2cc(C)c3cc(NC(=O)c4cccc(Cl)c4)ccc3n2)CC1", "XC50": 775}, {"smiles": "O=[N+]([O-])c1cc2c(cc1C=NNc1nc(=Nc3ccccc3)[nH]c(=Nc3ccccc3)[nH]1)OCO2", "XC50": 866}, {"smiles": "Cc1cccc2nc(-c3cccc(-c4cccc(CN5CCN(c6ccc(C#N)cn6)CC5)c4)c3)[nH]c12", "XC50": 1160}, {"smiles": "O=C(NC1CCC(CN2CCC(c3c[nH]c4ccccc34)CC2)CC1)c1cc2ccccc2o1", "note": "(stereo not drawn)", "XC50": 971}, {"smiles": "CC(C)CNCc1cccc(-c2cccc(CN(CCCN3CCN(C)CC3)C(=O)/C=C/c3ccccc3)c2)c1", "XC50": 926}, {"smiles": "COc1cc(OC)c(NC(=O)C2c3ccccc3C(=O)N(CC(C)C)C2c2cccs2)cc1Cl", "note": "(stereo not drawn)", "XC50": 46.4}, {"smiles": "CCOc1ccc2[nH]c(C)cc(=NN=Cc3ccc(Cl)cc3)c2c1", "XC50": 763}, {"smiles": "N[C@@H](Cc1cc(I)c(Oc2ccc(O)c(Cl)c2)c(I)c1)C(=O)O", "XC50": 993}, {"smiles": "O=C(/C=C/c1ccc(Cl)c(Cl)c1)NCCCCCN1CCC(NC(=O)c2cccc(Cl)c2)CC1", "XC50": 687}, {"smiles": "Cc1ccccc1OCCCN1CCN(CC(c2ccc(F)cc2)N2CCN(C(C)C)CC2)CC1", "note": "(stereo not drawn)", "XC50": 1410}, {"smiles": "COc1ccc(S(=O)(=O)N2CCOCC2)cc1NC(=O)c1cc2ccccc2o1", "XC50": 795}, {"smiles": "COCCN(CCOC)c1ncc(-c2ccsc2)c(-c2nc(C)c(C)s2)n1", "XC50": 843}, {"smiles": "COc1cccc(C(=O)NCc2cccs2)c1OCc1ccccc1", "XC50": 921}, {"smiles": "Nc1nccc(-c2ccc3c(-c4cccc(F)c4)cnc(N)c3c2)n1", "XC50": 1020}, {"smiles": "CC(C)CNCc1ccc(-c2ccc(CN(C(=O)NC3CCCCC3)C3CCN(Cc4ccccc4)CC3)cc2)cc1", "XC50": 785}, {"smiles": "O=C(C=Cc1ccc(Cl)c(Cl)c1)NCCCCCN1CCC(CCNC(=O)c2sc3ccccc3c2Cl)CC1", "XC50": 1010}, {"smiles": "COc1ccc(CC(=O)Nc2ccc(Nc3nc(C)cc(N(C)C)n3)cc2)cc1", "XC50": 790}, {"smiles": "CC(=O)N1CCN(c2ccc(NC(=O)c3oc(-c4ccccc4)nc3C(F)(F)F)cn2)CC1", "XC50": 840}, {"smiles": "Cc1ccc(NC(=O)c2ccc(N3CCN(c4ccncc4)CC3)cc2)cc1F", "XC50": 736}, {"smiles": "c1cc(CNC2CCCC2)cc(-c2ccc(CNc3ccc4ncccc4c3)cc2)c1", "XC50": 773}, {"smiles": "N#Cc1cccc(C(=O)Nc2ccc(-c3cccc(CN4CCC(O)CC4)c3)cc2)c1", "XC50": 995}, {"smiles": "O=C(CCc1ccccc1)N[C@H](Cc1c[nH]c2ccccc12)C(=O)N1CCC(NCc2ccc3c(c2)Cc2ccccc2-3)CC1", "XC50": 910}, {"smiles": "CC[C@H](C)CNCc1ccc(OCc2cccc(COc3ccc(CNC[C@@H](C)CC)cc3I)c2)c(I)c1", "XC50": 396}, {"smiles": "CS(=O)(=O)c1ccc(CCNCc2ccc(-c3ccc(CN(C(=O)c4cccc(C#N)c4)C4CCN(Cc5ccccc5)CC4)cc3)nc2)cc1", "XC50": 977}, {"smiles": "CCOC(=O)NC1=NC(C)(C)N(OCCCOc2cc(Cl)c(Cl)cc2Cl)C(NC(=O)OCC)=N1", "XC50": 31.2}, {"smiles": "Cc1c(-c2cccc(NC(=O)C(C)(C)Oc3ccc(Cl)cc3)c2)nc2ncccn12", "XC50": 170}, {"smiles": "CCNc1cc(C)nc(Nc2ccc(NC(=O)C3CCCC3)cc2)n1", "XC50": 1120}, {"smiles": "Cc1ccc(F)c(C(=O)Nc2cccc(-c3nn4ccccc4c3-c3ccnc(Nc4cccc(F)c4)n3)c2)c1F", "XC50": 1050}, {"smiles": "O=C(NCc1cccs1)[C@H](Cc1ccccc1)Nc1ccnc(NCCc2ccccc2)n1", "XC50": 1050}, {"smiles": "Cc1ccc(C(NC(=O)Cc2ccccc2)c2ccc3cccnc3c2O)cc1", "note": "(stereo not drawn)", "XC50": 623}, {"smiles": "CC(C)CNCc1ccc(-c2cccc(CN(C(=O)NC3CCCCC3)C3CCN(Cc4ccccc4)CC3)c2)cc1", "XC50": 805}, {"smiles": "COc1cccc2cc(C(=O)N[C@@H](CC(C)C)C(=O)N[C@H](C=NNC(=O)OC(C)(C)C)CC(C)C)oc12", "XC50": 905}, {"smiles": "Nc1ncc(-c2ccc3nccc(-c4ccncc4)c3c2)cc1S(=O)(=O)N1CCCCC1", "XC50": 581}, {"smiles": "COc1ccc2nccc([C@@H](O)CN3CCC(NC(=O)c4ccc(-c5ccc(C#N)cc5)cc4)CC3)c2c1", "XC50": 164}, {"smiles": "CCC1CN2CCc3c([nH]c4ccccc34)[C@@H]2C[C@@H]1CC1NCCc2cc(OC)c(OC)cc21", "note": "(stereo partly drawn)", "XC50": 865}, {"smiles": "O=C(Nc1ccc(Cl)cc1F)NC1CCN(CCCCCNC(=O)C2CC2c2ccc(Cl)c(Cl)c2)CC1", "note": "(stereo not drawn)", "XC50": 510}, {"smiles": "O=C(NCc1ccccc1)c1nn(CCCN2CCC3(CC2)C(=O)NCN3c2ccccc2)cc1-c1ccc(Cl)c(Cl)c1", "XC50": 1050}, {"smiles": "Cc1cccc2nc(-c3cccc(-c4cccc(NC(=O)Nc5ccccc5)c4)c3)[nH]c12", "XC50": 139}, {"smiles": "Cc1ccc(NC(=O)NC2CCN(c3ccnc4ccccc34)CC2)cc1", "XC50": 790}, {"smiles": "CN1CCCN(Cc2ccc(-c3ccc(NC(=O)c4cccc(C#N)c4)cc3)cc2)CC1", "XC50": 875}, {"smiles": "CC(C)CCNC(=N)Nc1ccc(OCCCOc2ccc(NC(=N)NCCC(C)C)cc2)cc1", "XC50": 200}, {"smiles": "CN1CC[C@@H](Oc2cc(CNC(=O)c3ccc(-c4ccc(Cl)cc4)s3)ccc2C(F)(F)F)C1", "XC50": 1030}, {"smiles": "CN1CCN(c2ccnc3ccc(NC(=O)Nc4cccc5c(Br)cccc45)cc23)CC1", "XC50": 153}, {"smiles": "Cc1cccc(CNc2nc(C)cc(N[C@@H](Cc3ccccc3)C(=O)NCCc3ccccc3)n2)c1", "XC50": 673}, {"smiles": "COc1cccc(-c2cnc(N)c(-c3nc4cc(Cl)c(F)cc4[nH]3)c2)c1", "XC50": 536}, {"smiles": "CCc1ccc(NC(=O)C=NNC(=N)N)cc1", "XC50": 902}, {"smiles": "Cc1cccc2nc(-c3ccc(-c4ccc(CN5CCC(C(N)=O)CC5)cc4)cc3)[nH]c12", "XC50": 932}, {"smiles": "COc1cc(C2CCN(CCCCNC(=O)c3ccc(NC(=O)c4ccc(Cl)c(Cl)c4)cc3)CC2)ccc1OC(C)C", "XC50": 316}, {"smiles": "CS(=O)(=O)c1cc2c(Nc3ccc(N4CCOCC4)cc3)c(C(N)=O)cnc2cc1Br", "XC50": 249}, {"smiles": "Cc1cccc2c3c([nH]c12)C1(CCN(Cc2ccccc2)CC1)NC(C(=O)NCc1ccccc1)C3", "note": "(stereo not drawn)", "XC50": 1370}, {"smiles": "COc1ccc2nccc([C@@H](O)CN3CCC(NC(=O)C(c4cc5ccccc5o4)N4CCC(Cc5ccccc5)CC4)CC3)c2c1", "note": "(stereo partly drawn)", "XC50": 247}, {"smiles": "O=C(CCNc1ccnc(NCCc2ccccc2)n1)Nc1ccccc1", "XC50": 836}, {"smiles": "C=CCOC1OC(COC(c2ccccc2)(c2ccccc2)c2ccccc2)C(OC(C)=O)C(OC(C)=O)C1NC(C)=O", "note": "(stereo not drawn)", "XC50": 657}, {"smiles": "C=C[C@]1(C)C[C@@H](OC(=O)c2n[nH]c3ccccc3c2=O)[C@]2(C)[C@H](C)CC[C@]3(CCC(=O)[C@H]32)[C@@H](C)[C@@H]1O", "XC50": 670}, {"smiles": "CCCCC(CCCC)CN1C(=O)C(c2ccccc2)(c2ccccc2)N=C1N", "XC50": 182}, {"smiles": "O=C(NCCCCN1CCC(c2ccc([N+](=O)[O-])cc2)CC1)c1ccc(NC(=O)c2ccc(Cl)cc2)cc1", "XC50": 757}, {"smiles": "CCc1ccc(NC(=O)c2ccc(CN3CCCN(Cc4cccc(C)c4)CC3)cc2)cc1", "XC50": 1130}, {"smiles": "Cc1cc2nc(-c3ccc(/C=C/C(=O)NCCCc4ccccc4)cc3)[nH]c2cc1C", "XC50": 955}, {"smiles": "CCNC[C@@H](O)[C@H](Cc1ccccc1)NC(=O)c1cc2c3c(c1)c(CC)cn3CCS(=O)(=O)N2C", "XC50": 810}, {"smiles": "CC(=O)CSC(C=Cc1ccc(N(C)C)cc1)=Nc1ccccc1", "XC50": 1120}, {"smiles": "COc1ccc(-c2ccccc2OCCCNc2nc(NCCc3ccc(O)cc3)nc(N3CCNCC3)n2)cc1", "XC50": 785}, {"smiles": "c1ccc(Oc2ccc(Nc3ccnc4cc(-c5ccc(CN6CCNCC6)o5)ccc34)cc2)nc1", "XC50": 243}, {"smiles": "O=S(=O)(NCCN1CCCC1)c1ccc(-c2ccc(CNCc3ccsc3)cc2)cc1", "XC50": 853}, {"smiles": "COc1cc(Cc2cnc(N)nc2N)cc(OCCCCC2SC(=O)NC2=O)c1Br", "note": "(stereo not drawn)", "XC50": 123}, {"smiles": "Cc1cccc(C(=O)N2CCN(Cc3cccc(NC(=O)c4cccs4)c3)CC2)c1", "XC50": 221}, {"smiles": "O=C(NCCCCN1CCC(c2ccc3c(c2OCCN2CCCC2=O)CCCC3)CC1)c1ccc(-c2ccc(C(F)(F)F)cc2)cc1", "XC50": 1520}, {"smiles": "CCOC(=O)c1nc(-c2ccc(-c3ccccc3)cc2)[nH]c1N", "XC50": 422}, {"smiles": "Cc1cc(-c2ccc(NC(=O)N3CCc4cc(Br)c(N5CCN(C)CC5)cc43)cc2)cc(C)n1", "XC50": 1010}, {"smiles": "Cc1nc2sccn2c1C(=O)NCCc1ccccc1Cl", "XC50": 800}, {"smiles": "CCn1c2ccccc2c2cc(C=NN=c3cc(C)[nH]c4ccccc34)ccc21", "XC50": 309}, {"smiles": "c1cc(CNC2Cc3ccccc3C2)cc(-c2cnc(N3CCNCC3)nc2)c1", "XC50": 943}, {"smiles": "CN(C)C(=O)c1ccc(CN(Cc2cccc(OC(C)(C)C)c2)Cc2ccc3c(c2)OCCO3)cc1", "XC50": 571}, {"smiles": "Oc1ccc(Cl)cc1CN1CCCC(COC(c2ccc(F)cc2)c2ccc(F)cc2)C1", "note": "(stereo not drawn)", "XC50": 677}, {"smiles": "Cc1cc(CNC(=O)c2ccc(-c3ccc(-c4nc5cc(C(F)(F)F)ccc5[nH]4)s3)cc2)on1", "XC50": 732}, {"smiles": "FC(F)(F)c1ccc2[nH]c(-c3ccc(-c4cccc(CN5CCN(c6ccncc6)CC5)c4)cc3)nc2c1", "XC50": 118}, {"smiles": "Cc1ccc(C)c(NC(=O)CC2C(=O)N(c3ccccc3)C(=S)N2Cc2ccco2)c1", "note": "(stereo not drawn)", "XC50": 570}, {"smiles": "CCn1c(SCC(=O)Nc2cc(C(F)(F)F)ccc2Cl)nc2ccccc2c1=O", "XC50": 397}, {"smiles": "COc1ccc(CNc2nc(Nc3cccc(C#N)c3)nc(Nc3cccc(C#N)c3)n2)cc1Cl", "XC50": 179}, {"smiles": "CC1CCCCN1S(=O)(=O)c1ccc(NC(=O)c2cc(-c3ccccc3O)n[nH]2)cc1", "note": "(stereo not drawn)", "XC50": 756}, {"smiles": "CC(CC(=O)NCC1(c2ccc(F)cc2Cl)CCOCC1)C(=O)c1ccc(Cl)cc1", "note": "(stereo not drawn)", "XC50": 856}, {"smiles": "CCN1C(=O)C(=NN=C(S)N2CCCC2)c2ccccc21", "XC50": 1000}, {"smiles": "CN1CCN(CCCN(Cc2ccc(-c3ccc(CNCCc4ccccc4)cc3)cc2)C(=O)c2cccs2)CC1", "XC50": 1430}]}]}
